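Five compound concentrations were applied to cells in 96-well plates for 48 hours; endpoints were derived by simple linear interpolation of the resulting dose-response curve. GI50 is the concentration that inhibits growth by half.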 Active and inactive are the calls of the source. Cut-off read from the data, not from the text of the source: active = GI50 up to about 1.1 µM and inactive = higher.
Experiments:
Experiment in all cases: growth of human tumour cells (NCI), 48 h
[1] = tested on: Hs-578T
[2] = tested on: A498
[3] = tested on: SF-295
[4] = tested on: CAKI-1
[5] = tested on: SK-MEL-2
[6] = tested on: PC-3
[7] = tested on: TK-10
[8] = tested on: SNB-19
[9] = tested on: HOP-62
[10] = tested on: SK-OV-3
[11] = tested on: SN12C
[12] = tested on: OVCAR-3
[13] = tested on: SF-268
[14] = tested on: M14
[15] = tested on: IGROV-1
[16] = tested on: KM-20L2
[17] = tested on: KM12
[18] = tested on: SNB-78
[19] = tested on: CCRF-CEM
[20] = tested on: BT-549

Measured: GI50

O=C(NCCCCCCNC(=O)n1cc(F)c(=O)[nH]c1=O)NCCCOCCOCCOCCOCCOCCOCCOCCOCCOCCOCCOCCOCCOCCOCCOCCOCCOCCOCCOCCOCCOCCCNC(=O)C(O)C(O)C(OC1OC(CO)C(O)C(O)C1O)C(O)CO (stereo not given)
inactive: [1] 69.2 µM | [2] 18.6 µM | [3] 64.9 µM | [4] 70 µM | [5] > 100 µM | [6] 55.2 µM | [7] > 100 µM | [8] 88.3 µM | [9] 20.6 µM | [10] > 86.9 µM | [11] 56.5 µM | [12] 37.1 µM | [13] 75.5 µM | [14] 67.5 µM | [15] 33.7 µM | [16] 24.1 µM | [17] 19.6 µM | [18] > 100 µM | [19] > 83.8 µM | [20] > 100 µM

Reference: ChEMBL document CHEMBL1201862, “PubChem BioAssay data set” (2004)
